Test results taken from ChEMBL document CHEMBL5104217, “Identification of a Target Site for Covalent Inhibition of Protein Phosphohistidine Phosphatase 1” (ACS Med Chem Lett, 2022).
Activity calls are given as the source filed them. The calls are words filed in the database; no cut-off is given here.

Assays:
[1] = molecular target: T1, 14 kDa phosphohistidine phosphatase (Homo sapiens, UniProt Q9NRX4); test: Inhibition of human PHPT1 expressed in Escherichia coli BL21 (DE3) using pNPP as substrate incubated for 1 hr by multimode microplate reader analysis
T1 sequence (Q9NRX4 whole entry): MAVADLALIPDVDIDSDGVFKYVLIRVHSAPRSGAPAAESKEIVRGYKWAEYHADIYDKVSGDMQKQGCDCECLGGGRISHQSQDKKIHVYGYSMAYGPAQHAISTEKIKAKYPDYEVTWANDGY

[2] = molecular target: T1, 14 kDa phosphohistidine phosphatase; test: Inhibition of human PHPT1 expressed in Escherichia coli BL21 (DE3) using pNPP as substrate assessed as inhibition constant by reciprocal analysis
[3] = molecular target: T2, 14 kDa phosphohistidine phosphatase (Homo sapiens) (UniProt Q9NRX4); test: Covalent inhibition of human PHPT1 expressed in Escherichia coli BL21 (DE3) assessed as inhibition of dephosphorylation of histidine-phosphorylated BSA at 10 equiv preincubated for 1 hr followed by substrate addition and measured for 150 secs by Western blot analysis; conditions: time 3750.0 sec
T2 sequence (whole entry): T1 sequence (Q9NRX4 whole entry)

[4] = molecular target: T2, 14 kDa phosphohistidine phosphatase (Homo sapiens); test: Inhibition of human PHPT1 expressed in Escherichia coli BL21 (DE3) using pNPP as substrate assessed as Kinact/Ki by reciprocal analysis
[5] = molecular target: T2, 14 kDa phosphohistidine phosphatase (Homo sapiens); test: Covalent inhibition of human PHPT1 expressed in Escherichia coli BL21 (DE3) using pNPP as substrate at 10 equiv preincubated for 60 mins by multimode microplate reader analysis
Homo sapiens [6] = organism: Homo sapiens; test: Covalent binding affinity to human PHPT1 C71A mutant expressed in Escherichia coli BL21 (DE3) assessed as covalent adduct formation at 10 equiv incubated for 1 hr by RP-HPLC based ESI-MS analysis
[7] = molecular target: T2, 14 kDa phosphohistidine phosphatase (Homo sapiens); test: Covalent inhibition of human PHPT1 expressed in Escherichia coli BL21 (DE3) assessed as increase in protein mass at 10 equiv incubated for 1 hr by RP-HPLC based ESI-MS analysis
Homo sapiens [8] = organism: Homo sapiens; test: Covalent binding affinity to human PHPT1 C69A mutant expressed in Escherichia coli BL21 (DE3) assessed as covalent adduct formation at 10 equiv incubated for 1 hr by RP-HPLC based ESI-MS analysis
[9] = molecular target: T2, 14 kDa phosphohistidine phosphatase (Homo sapiens); test: Inhibition of human PHPT1 expressed in Escherichia coli BL21 (DE3) using pNPP as substrate assessed as Kinact by reciprocal analysis

| SMILES | IC50 [1] | Ki [2] | inhibition [3] | Ratio [4] | inhibition [5] | Activity (Homo sapiens [6]) | inhibition [7] | Activity (Homo sapiens [8]) | Kinact [9] |
| --- | --- | --- | --- | --- | --- | --- | --- | --- | --- |
| C=C(CC)C(=O)c1ccc(OCC(=O)O)c(Cl)c1Cl [ETHACRYNIC ACID] | 18.3 µM | 183 µM | Active | 14.6 M⁻¹ s⁻¹ | Active | Active | Active | Active | 0.00267 s⁻¹ |
| CCN1C(=O)C=CC1=O [N-ETHYLMALEIMIDE] | – | 209 µM | – | 31 M⁻¹ s⁻¹ | – | – | – | – | 0.0075 s⁻¹ |
